{"source": "patent US20080003660A1", "about": "“Use of fast-release pristinamycin-type and polyether ionophore type antimicrobial agents in the production of ethanol” (priority 2006, published 2008)", "key": {"[1]": {"type": "physicochemical", "description": "In one embodiment, the liquid phase of the slurry comprises water and up to 25%, for example between 15% and 23%, of ethanol. This ethanol will pre-dissolve a very small portion of the antimicrobial agents from the particles, giving the injected slurry a small but almost instantaneous punch."}, "[2]": {"settings": "pH in the fermenters; cited from earlier work"}, "[3]": {"assay": "dissolution of 0.1 gram powder in 4 liters of stirred water", "type": "physicochemical", "settings": "5.2 to 10 micron average particle size, 0.1 gram in 4 liters water, continuously stirred", "description": "The over-riding factor in controlling pests such as lactobacilli, however, is the rate of dissolution of small granular pristinamycin-type antimicrobial agents and polyether ionophore-type antimicrobial agents in water or mash. A 0.1 gram sample of a 5.2 to 10 micron average particle size virginiamycin was placed in a beaker with 4 liters of water, and the composition was continuously and vigorously stirred (providing very good mixing and turbulence). The presence of undissolved crystals was very evident. […] Such slow dissolution will reduce effectiveness of pulse treatments as it takes a long time for the added agents to become solubilized and effective, and will reduce the highest concentration of added agents resulting from a pulsed addition as some of the agent may be removed from the fermentator or other tank before the maximum amount of added agent is solubilized, and because some added agent may not dissolve at all. The solubility of monensin, virginiamycin, and similar pristinamycin-type antimicrobial agents and polyether ionophore-type antimicrobial agents in water is very low. Much more important, however, is the rate of dissolution of small granular pristinamycin-type antimicrobial agents and polyether ionophore-type antimicrobial agents in water. […]"}, "[4]": {"system": "L. plantarum", "assay": "development of resistance test, 10 week duration", "type": "cell-based", "settings": "10 week duration of the test", "description": "One very effective control program involves the introduction of pristinamycin-type antimicrobial agents, and particularly virginiamycin, to the process. […] Usually, the “waste” byproduct, known as “Dried Distillers Grains with solubles (DDGS), is sold as animal feed, going 45% to dairy, 35% to beef, 15% to swine, and 5% to poultry industries. This is an important factor in the profitability of an ethanol production process, and the total amount of this byproduct produced per year is on the order of 3.5 million metric tons per year. The presence of residual antimicrobial agents in this material can adversely affect the value of this byproduct, as small residual amounts of antimicrobial agents in feed will promote the development of agent-resistant microorganisms. We have tested DDG samples from 8 major ethanol producers using virginiamycin to control microorganisms and found no detectable amount of virginiamycin in the DDG (<1 ppm via the validated Eurofins analysis and <1 ppb via an unvalidated experimental analytical procedure). […] Generally, however, the virginiamycin in mash is destroyed by drying so virginiamycin must be re-added to the feed if so desired. Other effective control programs employ polyether ionophore antimicrobial agents, which provide many of the benefits obtained with pristinamycin-type antimicrobial agents. […]"}, "[5]": {"assay": "stability in water (hydrolysis)", "type": "physicochemical", "experimental": "In another embodiment at least a portion of said antimicrobial agent is added to the mash as a composition comprising particles comprising said substantially water insoluble antimicrobial agent(s), said composition being in the form of a slurry. In another embodiment at least a portion of said antimicrobial agent is added to the mash as a composition comprising particles comprising said substantially water insoluble antimicrobial agent(s) and having a weight mean average diameter of between 0.1 and 2 microns, said composition being in the form of a slurry. Many of the preferred antimicrobial agents have a slight instability when dissolved in water, which can be significant over long storage periods. […] Coating particles with protectorants will reduce stability problems. Placing the slurry in a […] substantially water-free material, be it fatty acids, surfactants, dispersants, solvents in which the antimicrobial agents have minimal solubility (called an “oil flowable slurry”), or any combination of the above can reduce loss of antimicrobial agent. […] An oil-flowable slurry can be readily prepared by milling the antimicrobial agents as described herein, but where the solvent replaces the water in the milling process. […]"}, "[6]": {"settings": "cited from earlier work"}}, "data": [{"molecule": "CC[C@@]1([C@@H]2O[C@@H]([C@H]3O[C@@](O)(CO)[C@H](C)C[C@@H]3C)C[C@@H]2C)CC[C@H]([C@]2(C)CC[C@]3(C[C@H](O)[C@@H](C)[C@@H]([C@@H](C)[C@@H](OC)[C@H](C)C(=O)O)O3)O2)O1", "note": "[monensin]", "values": [{"measurement": "solubility in water/ethanol", "setting": "[1]", "result": "high solubility"}]}, {"molecule": "[H]/N=C(/N)N[C@H]1[C@H](O)[C@@H](O)[C@H](O[C@@H]2O[C@@H](C)[C@](O)(C=O)[C@H]2O[C@@H]2O[C@@H](CO)[C@H](O)[C@@H](O)[C@@H]2NC)[C@@H](N/C(N)=N\\[H])[C@@H]1O", "note": "[streptomycin]", "values": [{"measurement": "inactivation at fermenter pH", "setting": "[2]", "result": "partially inactivated"}]}, {"molecule": "penicillin", "values": [{"measurement": "inactivation at fermenter pH", "setting": "[2]", "result": "partially inactivated"}]}, {"molecule": "virginiamycin", "values": [{"measurement": "time before only a few crystals remained visible", "setting": "[3]", "result": "on the order of an hour"}, {"measurement": "time for L. plantarum to develop resistance", "setting": "[4]", "result": "no development of resistance"}, {"measurement": "stability when in water", "setting": "[5]", "result": "slow hydrolysis"}, {"measurement": "solubility in water/ethanol", "setting": "[1]", "result": "high solubility"}, {"measurement": "solubility in water", "setting": "[6]", "result": 0.0001, "unit": "grams/l"}]}]}
